The molecules below were run against T1, Recombinant human TLR7 (Homo sapiens, UniProt Q9NYK1) (assay: Human TLR7 Assay (SEAP reporter in HEK293 cells)). Conditions: HEK293 cell line stably expressing human TLR7 and pNiFty2-SEAP reporter; SEAP induction after overnight incubation at 37° C., 0.1% (v/v) DMSO.
T1 construct: expressed in transfected cells; host or cells: HEK293 cell line stably expressing the pNiFty2-SEAP reporter plasmid; TLR7 in pUNO vector
T1 sequence (Q9NYK1 27-1049): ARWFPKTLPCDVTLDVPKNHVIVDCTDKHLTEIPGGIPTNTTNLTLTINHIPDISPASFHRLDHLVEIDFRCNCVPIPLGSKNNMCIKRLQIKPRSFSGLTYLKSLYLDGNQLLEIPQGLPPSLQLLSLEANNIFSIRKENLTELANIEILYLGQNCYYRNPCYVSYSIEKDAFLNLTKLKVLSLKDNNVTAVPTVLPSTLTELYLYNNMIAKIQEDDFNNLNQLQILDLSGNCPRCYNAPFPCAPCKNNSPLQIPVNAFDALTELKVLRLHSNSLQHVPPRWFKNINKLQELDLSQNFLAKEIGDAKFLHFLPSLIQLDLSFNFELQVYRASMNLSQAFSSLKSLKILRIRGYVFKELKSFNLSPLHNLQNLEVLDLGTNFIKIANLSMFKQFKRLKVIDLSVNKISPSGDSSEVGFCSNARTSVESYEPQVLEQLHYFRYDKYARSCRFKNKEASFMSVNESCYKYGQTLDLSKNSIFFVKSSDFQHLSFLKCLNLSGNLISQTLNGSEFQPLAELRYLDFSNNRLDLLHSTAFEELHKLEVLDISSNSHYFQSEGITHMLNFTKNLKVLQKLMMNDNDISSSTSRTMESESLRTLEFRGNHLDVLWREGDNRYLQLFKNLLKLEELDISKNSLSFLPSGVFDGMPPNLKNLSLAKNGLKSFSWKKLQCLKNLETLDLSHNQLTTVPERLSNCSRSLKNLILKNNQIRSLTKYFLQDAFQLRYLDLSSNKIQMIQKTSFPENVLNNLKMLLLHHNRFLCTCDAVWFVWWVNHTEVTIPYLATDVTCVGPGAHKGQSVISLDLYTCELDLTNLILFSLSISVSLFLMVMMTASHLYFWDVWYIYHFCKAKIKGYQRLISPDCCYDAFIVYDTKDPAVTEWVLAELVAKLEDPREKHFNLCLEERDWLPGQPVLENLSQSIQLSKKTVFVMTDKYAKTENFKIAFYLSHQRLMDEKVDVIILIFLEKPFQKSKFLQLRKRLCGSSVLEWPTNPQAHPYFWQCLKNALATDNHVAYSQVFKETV
Type: cell-based
Description: Recombinant human TLR7 was stably expressed in a HEK293 cell line already stably expressing the pNiFty2-SEAP reporter plasmid; integration of the reporter gene was maintained by selection with the antibiotic zeocin. The most common variant sequence of human TLR7 (represented by the EMBL sequence AF240467) was cloned into the mammalian cell expression vector pUNO and transfected into this reporter cell-line. Transfectants with stable expression were selected using the antibiotic blasticidin. In this reporter cell-line, expression of secreted alkaline phosphatase (SEAP) is controlled by an NFkB/ELAM-1 composite promoter comprising five NFkB sites combined with the proximal ELAM-1 promoter. TLR signaling leads to the translocation of NFkB and to activation of the promoter results in expression of the SEAP gene. TLR7-specific activation was assessed by determining the level of SEAP produced following overnight incubation of the cells at 37° C. with the standard compound in the presence of 0.1% (v/v) dimethylsulfoxide (DMSO). Concentration dependent induction of SEAP production by compounds was expressed as the concentration of compound which produced half of the maximal level of SEAP induction for that compound (pEC50)

In order of rising EC50:
1. CCCCOc1nc(N)c2[nH]c(=O)n(CCCN(C)CC(=O)N(C)C)c2n1 [Example 4, N^2-[3-(6-Amino-2-butoxy-8-oxo-7,8-dihydro-9H-purin-9-yl)propyl]-N^1,N^1,N^2-trimethylglycinamide]  0.251 µM
2. CCCCOc1nc(N)c2[nH]c(=O)n(CCCN3CCCC3)c2n1 [Example 1, 6-Amino-2-butoxy-9-(3-pyrrolidin-1-ylpropyl)-7,9-dihydro-8H-purin-8-one]  0.398 µM
3. CCCCOc1nc(N)c2[nH]c(=O)n(CCCN3CCC[C@H]3COC)c2n1 [Example 3, 6-Amino-2-butoxy-9-{3-[(25)-2-(methoxymethyl)pyrrolidin-1-yl]propyl}-7,9-dihydro-8H-purin-8-one]  2.51 µM
4. CCCCOc1nc(N)c2[nH]c(=O)n(CCCN3CCC[C@H]3C(=O)N(C)C)c2n1 [Example 2, 1-[3-(6-Amino-2-butoxy-8-oxo-7,8-dihydro-9H-purin-9-yl)propyl]-N,N-dimethyl-L-prolinamide]  3.16 µM
